Data: patent publication US7833532B2, “Immunogenic lipopeptides comprising T-helper and cytotoxic T lymphocyte (CTL) epitopes” (The Council of The Queensland Institute of Medical Research, priority 2002, dated 2010)
Entries after “also recorded” stand apart in the source; their conditions may differ. Side chains are listed from the residue outwards. Ends that are not written are not given here.

Key:
[1] = tested on: Listeria monocytogenes; test: Protection against L. monocytogenes challenge (colony forming units in liver); assay type: in vivo; conditions: 9 nmol subcutaneously, i.v. challenge 28 days after priming, CFU in liver; relative to non-lipidated peptide or PBS
Source text: FIG. 12 is a graphical representation showing enhanced protection against L. monocytogenes infection for mice immunized with the lipopeptide designated [P25]-Lys(Pam2Cys-Ser-Ser)-[LLO91-99] in FIG. 2 (based upon SEQ ID NO: 175). Five 5 BALB/c mice were inoculated intravenously with 1,000 bacteria (column 1), or immunized subcutaneously with PBS (column 2) or 9 nmol [P25]-Lys(Pam2Cys-Ser-Ser)-[LLO91-99] peptide (column 3) or 9 nmol non-lipidated [P25]-Lys-[LLO091-99] peptide (SEQ ID NO: 175; column 4), as indicated on the x-axis. Mice were challenged with whole bacteria and the number of colony forming units present in liver was measured 28 days post-challenge (ordinate).
Listeria monocytogenes EGD was cultured overnight at 37° C. on Horse Blood Agar (HBA) plates. The bacteria were washed off the plates using sterile PBS and the concentration adjusted to 5×10^3 Listeria cells/ml. Balb/c mice were infected intravenously with 1×10^3 Listeria cells. The dose was checked retrospectively by plating serial 10-fold dilutions on HBA plates.
Mice immunized s.c. with 9 nmol peptide immunogen or PBS, or i.v. with 1000 bacteria, were challenged by i.v. injection with bacteria 28 days after priming and the number of colony forming units of bacteria present in the liver determined 28 days after challenge.

[2] = tested on: splenocytes; test: IFN-gamma producing splenocytes after immunization with L. monocytogenes CTL epitope peptides; assay type: in vivo, BALB/c mice; conditions: 9 nmoles subcutaneously, in vitro stimulation with CTL epitope, day 28
Source text: FIG. 11 is a graphical representation showing induction of interferon-gamma producing cells by lipopeptide. Peptide comprising a T-helper epitope and a CTL epitope of Listeria monocytogenes linked via the epsilon amino group of an internal lysine residue positioned between said epitopes to Pam2Cys (i.e. the peptide [P25]-Lys(Pam2Cys-Ser-Ser)-[LLO91-99] listed in FIG. 2 and based upon SEQ ID NO: 175), or lipopeptide(s) based on this structure in which Pam2Cys was linked through the epsilon amino group of said lysine, were used to inoculate mice. […] Splenocytes were obtained from the immunized animals and stimulated in vitro with either the isolated CTL epitope having the sequence set forth in SEQ ID NO: 172 (open bars) or no antigen (filled bars), and the number of (IFN-gamma) producing cells present was measured 28 days later. […]
5 BALB/c mice were inoculated with 9 nmoles of non-lipidated peptide ([P25]-Lys-[LLO91-99]), or lipidated peptide ([P25]-Lys(Pam2Cys-Ser-Ser)-[LLO91-99]) in which lipid was attached between the two epitopes at the approximate centre of the molecule, or with 1000 bacteria. […] The number of interferon-γ producing cells present in spleen was measured on day 28 following in vitro stimulation with the CTL epitope or no antigen. […]

“[P25]-Lys(Pam2Cys-Ser-Ser)-[LLO91-99]: peptide [P25]-Lys-[LLO91-99] and a lipid of the Formula (IV) conjugated to the epsilon-amino group of the internal lysine (KLIPNASLIENCTKAELK([Ser-Ser-Pam2Cys])GYKDGNEYI)” was tested, and the “protection against challenge with whole bacteria” value [1] was “successfully provides protection; also recorded: significantly enhanced protection” and the “IFN-γ producing cells per million splenocytes relative to non-lipidated peptide or PBS control” value [2] was “about 15 fold”.
